These are literature values, as cited in US11464838B2, “Optimized cancer stem cell vaccines” (COLORADO STATE UNIVERSITY RESEARCH FOUNDATION, priority 2015, dated 2022).

The structures appear in SMILES notation.

The conditions of this series: in vivo.
In the case of `CCOc1nc2cccc(C(=O)O)c2n1Cc1ccc(-c2ccccc2-c2noc(=O)[nH]2)cc1` [Azilsartan], the Bioavailability is 60% and the “Biological Half-Life” value is listed as 11 hours.

Turning to `CCCCc1ncc(/C=C(\Cc2cccs2)C(=O)O)n1Cc1ccc(C(=O)O)cc1` [Eprosartan], the Bioavailability is given as 13% and the “Biological Half-Life” value was 5 hours.

`CCCCC1=NC2(CCCC2)C(=O)N1Cc1ccc(-c2ccccc2-c2nnn[nH]2)cc1` [Irbesartan]: the Bioavailability is 70%.

Regarding `CCCCc1nc(Cl)c(CO)n1Cc1ccc(-c2ccccc2-c2nn[nH]n2)cc1` [Losartan], the “Biological Half-Life” value is given as 2 hours.
